Test results published in US20120010177A1, “MicroRNA Modulators and Method for Identifying And Using The Same” (The Wistar Institute / North Carolina State University, priority 2008, published 2012).

test system: miR-21; test: High throughput primary miR-21 FLuc reporter assay (concentration-response); type: cell-based, human; conditions: HeLa Luc-miR-21 reporter, 48-hour incubation
Experimental: Primary miR-21 Assay. The primary miR-21 FLuc reporter assay is carried out with HeLa cells expressing the Luc-miR-21 reporter using a 48-hour incubation time. Active compounds that increase the luciferase response are identified based upon inhibition of miR-21.
SAR. The concentration-response data for the entire high throughput screen is plotted and modeled by a four parameter logistic fit and SAR analysis is performed according to conventional approaches (Iglese, et al. (2006) Proc. Natl. Acad. Sci. USA […]:11473-8). In brief, Class 1.1 and 1.2 are full curves containing upper and lower asymptotes with efficacy ≧80% and <80%, respectively. Class 2.1 and 2.2 are incomplete curves having only one asymptote with efficacy ≧80% and <80%, respectively. Class 3 curves show activity at only the highest concentration or are poorly fit. […] For SAR analysis, compounds associated with Class 1 and 2.1 curves are clustered using LEADSCOPE® fingerprints. […] Compounds sharing a common scaffold form a series. Candidate series and singletons are chosen for follow up studies. For each lead or series, an appropriate library design method (e.g., point substitution library or matrix library) is selected. Typically, precursors are synthesized and a library of 15-25 compounds is produced for analysis in the above-described assays.

Point of comparison: `CC(=NNC(=O)c1ccoc1C)c1cccc2ccccc12` [Compound 209, CC(═NNC(═O)C1═C(C)/O/C═C\1)C2═C/C═C\C3═C\C═C/C═C\2\3], Efficacy −65.67. Against it:
- COc1ccc2cc(OCC(=O)NNC(=O)Nc3ccc(C(C)=O)cc3)ccc2c1 [Compound 183, COC1═C/C═C2/C═C(OCC(═O)NNC(═O)NC3═C/C═C(\C═C\3)C(C)═O)\C═C/C\2═C\1] — higher, −65.21

same assay, conditions: HeLa Luc-miR-21 reporter, 48-hour incubation, four parameter logistic fit

Point of comparison: `CC(=NNC(=O)c1ccoc1C)c1cccc2ccccc12` [Compound 209, CC(═NNC(═O)C1═C(C)/O/C═C\1)C2═C/C═C\C3═C\C═C/C═C\2\3], “Curve Class” value −2.2. Against it:
- COc1ccc2cc(OCC(=O)NNC(=O)Nc3ccc(C(C)=O)cc3)ccc2c1 [Compound 183, COC1═C/C═C2/C═C(OCC(═O)NNC(═O)NC3═C/C═C(\C═C\3)C(C)═O)\C═C/C\2═C\1] — the same, −2.2

same assay, conditions: HeLa Luc-miR-21 reporter, 48-hour incubation; read-out: AC50

Point of comparison: `CC(=NNC(=O)c1ccoc1C)c1cccc2ccccc12` [Compound 209, CC(═NNC(═O)C1═C(C)/O/C═C\1)C2═C/C═C\C3═C\C═C/C═C\2\3], AC50 7.36 µM. Against it:
- COc1ccc2cc(OCC(=O)NNC(=O)Nc3ccc(C(C)=O)cc3)ccc2c1 [Compound 183, COC1═C/C═C2/C═C(OCC(═O)NNC(═O)NC3═C/C═C(\C═C\3)C(C)═O)\C═C/C\2═C\1] — 2.2-fold higher, 16.5 µM

same assay, conditions: Homo sapiens, HeLa, 48 h, HeLa Luc-miR-21 reporter, 48-hour incubation; read-out: AC50

Point of comparison: `O=C(COc1ccccc1F)Nc1ccc(-c2nc3ccccc3s2)cc1` [Compound 166], AC50 1.47 µM. Against it:
- O=C(CSc1nnc(-c2ccc(Br)cc2)o1)Nc1cccc2ccccc12 [Compound 164] — 13-fold higher, 18.5 µM
- COc1ccc(OCC(=O)Nc2ccc(-c3nc4cc(C)c(C)cc4o3)cc2)cc1 [Compound 165] — 11-fold lower, 0.13 µM
- COc1ccc(OCC(=O)Nc2ccc(-c3nc4cc(Cl)ccc4o3)cc2)cc1 [Compound 167] — 2-fold higher, 2.93 µM
- Cc1cccc(OCC(=O)Nc2sc3c(c2C#N)CCC3)c1 [Compound 168] — 4.5-fold higher, 6.56 µM
- Cc1ccc(OCC(=O)N(Cc2ccco2)c2ccccn2)cc1 [Compound 169] — 10-fold higher, 14.7 µM
- CCCNC(=O)COCc1cc(-c2ccc(F)cc2)on1 [Compound 170] — 11-fold higher, 16.5 µM
- CCn1c2ccccc2c2cc(NC(=O)COC(=O)Cc3cn4ccsc4n3)ccc21 [Compound 171] — 11-fold higher, 16.5 µM
- O=C(COc1ccccc1[N+](=O)[O-])N/N=C/c1ccc(O)cc1 [Compound 172] — 8-fold higher, 11.7 µM
- O=C(COc1ccccc1[N+](=O)[O-])N/N=C/c1cccc(OC(=O)c2ccc3c(c2)OCO3)c1 [Compound 173] — 13-fold higher, 18.5 µM
- CC(=O)Nc1ccc(NC(=O)COc2ccc(Cl)cc2Cl)cc1 [Compound 175] — 10-fold higher, 14.7 µM
- COCC(=O)Nc1nnc(C2CCCCC2)s1 [Compound 176] — 11-fold higher, 16.5 µM
- COc1ccc(-c2csc(NC(=O)COC(=O)c3ccc(Br)o3)n2)cc1 [Compound 177] — 2-fold higher, 2.93 µM
- COCC(=O)Nc1ccc(C(=O)Nc2ccccc2Cl)cc1 [Compound 178] — 8-fold higher, 11.7 µM
- CC(C)c1nnc(NC(=O)COc2ccccc2[N+](=O)[O-])s1 [Compound 179] — 6.3-fold higher, 9.27 µM
- Cc1cc(CC(C)C)n(-c2nc3ccccc3c(=O)n2OCC(N)=O)n1 [Compound 180] — 10-fold higher, 14.7 µM
- C=CCNC(=S)NNC(=O)COc1ccc2cc(Br)ccc2c1 [Compound 181] — 5-fold higher, 7.36 µM
- NC(=O)COC(=O)c1ccc2noc(-c3ccccc3)c2c1 [Compound 182] — 4.5-fold higher, 6.56 µM
- COc1ccc(OCC(=O)Nc2cc(-c3nc4ccccc4s3)ccc2C)cc1 [Compound 184] — 3.2-fold higher, 4.65 µM
- C/C(=N\NC(=O)c1ccncc1)c1ccc(NC(=O)c2ccc(Cl)cc2)cc1 [Compound 185] — the same, 1.47 µM
- O=C(NN=C1CCCC1)c1cccs1 [Compound 186] — within 1.5-fold, 1.65 µM
- COc1ccc(NC(=O)C/C(C)=N/NC(=O)c2ccccn2)c(OC)c1 [Compound 187] — within 1.5-fold, 1.85 µM
- COc1ccccc1NC(=O)C/C(C)=N/NC(=O)c1ccccn1 [Compound 188] — within 1.5-fold, 1.85 µM
- CC(=O)Nc1ccccc1NC(=O)C/C(C)=N/NC(=O)c1ccccn1 [Compound 189] — within 1.5-fold, 1.85 µM
- COc1ccc(NC(=O)C/C(C)=N/NC(=O)c2cccs2)c([N+](=O)[O-])c1 [Compound 190] — within 1.5-fold, 1.85 µM
- C/C(=N\N1C(=O)c2ccccc2NC1c1ccccc1)c1ccccc1O (centres unmarked) [Compound 192] — 1.8-fold higher, 2.61 µM
- O=C(Cc1cccs1)N/N=C/C(Cl)=C/c1ccccc1 [Compound 193] — 2-fold higher, 2.93 µM
- COc1cc(NC(=O)C/C(C)=N/NC(=O)c2ccccn2)c(OC)cc1Cl [Compound 194] — 2.5-fold higher, 3.69 µM
- C/C(CC(=O)Nc1cc(C)cc(C)c1)=N\NC(=O)c1ccccn1 [Compound 195] — 3.2-fold higher, 4.65 µM
- C/C(=N\NC(=O)c1ccco1)c1ccc(C(=O)O)s1 [Compound 196] — 3.2-fold higher, 4.65 µM
- C/C(=N\NC(=O)c1ccccc1)c1ccc(NC(=O)C(F)(F)F)cc1 [Compound 197] — 3.2-fold higher, 4.65 µM
- Nc1ccccc1C(=O)N/N=C1\CCC\C1=C(\O)C(F)(F)F [Compound 198] — 3.5-fold higher, 5.21 µM
- O=C(N/N=C1\CC2C=CCC12)c1ccco1 (centres unmarked) [Compound 199] — 3.5-fold higher, 5.21 µM
- C/C(CC(=O)NC(C)(C)C)=N\NC(=O)c1ccccc1N [Compound 200] — 3.5-fold higher, 5.21 µM
- CC1C2CC(C/C2=N\NC(=O)c2cccs2)C1(C)C (centres unmarked) [Compound 201] — 3.5-fold higher, 5.21 µM
- Cc1ccc(N/C(S)=N/NC(=O)c2nn(C)c(C)c2Cl)cc1 [Compound 203] — 4-fold higher, 5.85 µM
- O=C(Cc1cccs1)N/N=C/C=C/c1ccccc1[N+](=O)[O-] [Compound 204] — 4.5-fold higher, 6.56 µM
- C/C(CC(=O)NC(C)(C)C)=N\NC(=O)c1ccco1 [Compound 205] — 4.5-fold higher, 6.56 µM
- CC(C)N1CCC(=NNC(=O)c2cccs2)CC1 [Compound 206] — 4.5-fold higher, 6.56 µM
- Cc1ccc(C)c(N/C(S)=N/NC(=O)c2csc(C)c2C)c1 [Compound 207] — 4.5-fold higher, 6.56 µM
- COc1ccc(N/C(S)=N/NC(=O)c2cccs2)cc1 [Compound 208] — 5-fold higher, 7.36 µM
- Cc1occc1C(=O)N/N=C(\S)Nc1ccccc1C(F)(F)F [Compound 211] — 5.6-fold higher, 8.26 µM
- COc1ccc(C2=NN(C(C)=O)C(c3cccs3)C2)cc1OC (centres unmarked) [Compound 212] — 5.6-fold higher, 8.26 µM
- C/C(CC(=O)NCc1ccccc1Cl)=N\NC(=O)c1ccccn1 [Compound 213] — 5.6-fold higher, 8.26 µM
- CCCCC12CN3CCN(CC(C3)/C1=N/NC(=O)c1ccccc1N)C2 [Compound 214] — 6.3-fold higher, 9.27 µM
- C/C(=N\NC(=O)c1ccc(Br)o1)c1ccc(C)o1 [Compound 216] — 7.1-fold higher, 10.4 µM
- CC1=NN(C(=O)c2ccoc2C)C(O)(C(F)(F)F)C1 (centres unmarked) [Compound 217] — 7.1-fold higher, 10.4 µM
- C/C(=N\NC(=O)c1ccoc1C)c1ccc(Br)s1 [Compound 219] — 8-fold higher, 11.7 µM
- O=C(N/N=C/c1cccc([N+](=O)[O-])c1)c1nc(O)c2ccccc2n1 [Compound 220] — 8-fold higher, 11.7 µM
- O=C(N/N=C1\CC2C=CCC12)c1cccs1 (centres unmarked) [Compound 221] — 8-fold higher, 11.7 µM
- C/C(CCc1ccccc1)=N\NC(=O)c1ccccc1 [Compound 222] — 8.9-fold higher, 13.1 µM
- Cc1ccsc1/C=N/NC(=O)c1ccc(-n2cccc2)cc1 [Compound 223] — 8.9-fold higher, 13.1 µM
- O=C(N/N=C/c1ccc2cccnc2c1)c1nc(O)c2ccccc2n1 [Compound 224] — 8.9-fold higher, 13.1 µM
- C/C(CCc1ccc2c(c1)OCO2)=N\NC(=O)c1ccccc1 [Compound 225] — 8.9-fold higher, 13.1 µM
- O=C(O)c1ccccc1C(=O)N1N=C(c2ccccc2)CC1c1ccccc1O (centres unmarked) [Compound 226] — 10-fold higher, 14.7 µM
- CC(=O)N1N=C(c2ccc(C)cc2)OC1c1cccnc1 (centres unmarked) [Compound 228] — 11-fold higher, 16.5 µM
- C/C(=N\NC(=O)c1ccco1)c1ccc(NC(=O)C(F)(F)F)cc1 [Compound 229] — 11-fold higher, 16.5 µM
- CCCCCCC1/C(=N\NC(=O)c2ccccc2)CCC1C(=O)OC (centres unmarked) [Compound 230] — 11-fold higher, 16.5 µM
- CC1=NN(C(=O)c2ccc(C)o2)C(O)(c2ccccc2)C1 (centres unmarked) [Compound 231] — 11-fold higher, 16.5 µM
- C/C(=N\NC(=O)c1nn(C)cc1Br)c1ccc(NC(=O)c2ccncc2)cc1 [Compound 234] — 13-fold higher, 18.5 µM
- O=C(N/N=C/c1ccc(OC(=O)c2cccs2)cc1)c1cccc(F)c1 [Compound 235] — 13-fold higher, 18.5 µM
- C/C(Cn1cnc([N+](=O)[O-])n1)=N\NC(=O)c1ccccc1 [Compound 236] — 14-fold higher, 20.8 µM
- COc1ccc(NC(=O)C/C(C)=N/NC(=O)c2ccco2)c([N+](=O)[O-])c1 [Compound 237] — 14-fold higher, 20.8 µM
- Cc1oc(/C=N/NS(=O)(=O)c2ccccc2)cc1Br [Compound 238] — 8.9-fold higher, 13.1 µM
- Cc1ccccc1OCCn1cnc2c(N)ncnc21 [Compound 239] — 6.3-fold higher, 9.27 µM
- Cc1ccc(OCCn2cnc3c(N)ncnc32)cc1 [Compound 240] — 11-fold higher, 16.5 µM
- COc1cc(-c2nc3cnccn3c2Nc2ccc(C(C)C)cc2)ccc1O [Compound 241] — 2.2-fold higher, 3.29 µM
- Cc1ccc(-c2nc3ncccn3c2Nc2ccc3c(c2)OCCO3)o1 [Compound 242] — 11-fold higher, 16.5 µM
- Cc1ccc(-c2nc3cnccn3c2Nc2ccccc2)o1 [Compound 243] — 11-fold higher, 16.5 µM
- Cc1ccc(Nc2c(-c3ccc(C)o3)nc3cnccn23)cc1 [Compound 244] — 11-fold higher, 16.5 µM
- Clc1ccc(-n2ncc3c(NCc4ccccn4)ncnc32)cc1 [Compound 245] — 4-fold higher, 5.85 µM
- CCCNc1ncnc2c1cnn2-c1ccc(OC)cc1 [Compound 246] — 5.1-fold lower, 0.29 µM
- COc1ccc(-n2ncc3c(NCCCn4ccnc4)ncnc32)cc1 [Compound 247] — 7.1-fold higher, 10.4 µM
- CCCNc1nc(C)nc2c1cnn2CCc1ccccc1 [Compound 248] — 10-fold higher, 14.7 µM

same assay, conditions: Homo sapiens, Table 12 singletons; read-out: AC50

Point of comparison: `CC(=O)N1CCN(c2nc3c(F)cc(F)cc3s2)CC1` [Compound 254], AC50 1.85 µM. Against it:
- O=C(CCS(=O)(=O)c1ccccc1)Nc1ccc(-c2nc3ccccc3s2)cc1 [Compound 249] — 7.1-fold lower, 0.26 µM
- Cc1c(-c2nc(-c3ccc(C(F)(F)F)cc3)no2)n(C)oc1=O [Compound 250] — 6.4-fold lower, 0.29 µM
- CCC(C)NC(=O)CCCn1c(=O)c2cccn2c2ccccc21 (centres unmarked) [Compound 251] — 2-fold lower, 0.93 µM
- Cn1c(=O)[nH]c2cc(-c3noc(-c4ccc(F)cc4)n3)ccc21 [Compound 252] — within 1.5-fold, 1.31 µM
- CC(C)(C)NS(=O)(=O)c1cccc(S(=O)(=O)c2cccc(S(=O)(=O)NC(C)(C)C)c2)c1 [Compound 253] — within 1.5-fold, 1.65 µM
